Values of other authors in patent US11230553B2, “Nannocystin process and products” (THE RESEARCH FOUNDATION FOR THE STATE UNIVERSITY OF NEW YORK, priority 2016, dated 2022).

Tests used:
HCT116 = HCT116 cancer cell line; read-out: IC50 against HCT116
PC3 = PC3 cancer cell line; read-out: IC50 against PC3
HL60 = HL60 cancer cell line; read-out: IC50 against HL60

CC[C@H](C)[C@H]1C(=O)N[C@H](Cc2cc(Cl)c(O)c(Cl)c2)C(=O)N[C@@H](C(C)(C)O)C(=O)O[C@H](c2ccccc2)[C@H](C)/C=C/C=C(\C)[C@H](OC)C[C@@H]2O[C@@]2(C)C(=O)N1C [nannocystin A, (1), (1R,4S,7R,10S,13S,14R,15E,17E,19R,21S)-4-((S)-sec-butyl)-7-(3,5-dichloro-4-hydroxybenzyl)-10-(2-hydroxypropan-2-yl)-19-methoxy-1,3,14,18-tetramethyl-13-phenyl-12,22-dioxa-3,6,9-triazabicyclo[19.1.0]docosa-15,17-diene-2,5,8,11-tetraone]
anti-proliferative properties against 472 cancer cell lines (472 cancer cell lines): nanomolar concentration range | IC50 (HCT116): 1.2 nM | IC50 (PC3): 1 nM | IC50 (HL60): 12 nM
